Data taken from patent US20220273703A1, “NRF2 ACTIVATION FOR TREATMENT OF NEPHROGENIC DIABETES INSIPIDUS” (University Of Pittsburgh-Of The Commonwealth System Of …, priority 2019, published 2022).
Like-named read-outs stand apart in the source and are kept apart here.

Assays:
Nrf2 [1] = test: 10-nitro-9(E)-octadec-9-enoic acid in nephrogenic diabetes insipidus; settings: in vivo
Text: The pharmacologic activation of Nrf2 with CDDO-Me provided motivation to evaluate the viability of 10-nitro-9(E)-octadec-9-enoic acid as an activator and potential API for treating or preventing NDI.

Nrf2 gene target NQO1 = test: NQO1 expression (immunoblotting) in primary human renal cortical cells; assay type: cell-based
Description: Cell culture: Primary human distal tubule cells from human adult kidneys were isolated and cultured as previously described (Emlet et al., Am. J. Physiol.-Ren. Physiol. 312, (2017)). Confluent monolayers of cells were incubated with vehicle control, LiCl or CDDO-Im for 18 hr in serum-free hormonally defined media followed by preparation of lysates for immunoblotting.
(§1) Immunoblotting: Flash-frozen kidneys were homogenized in ice-cold Radio Immuno Precipitation Assay (RIPA) buffer containing protease and phosphatase inhibitor cocktails. Cells were treated as indicated. At time of collection, cells were washed 2× with cold PBS and lysates were prepared in 4° C. lysis buffer containing protease inhibitors. Protein was quantified by bicinchoninic acid (BCA) assay (Pierce) and sample containing 15-25 μg total cellular protein was loaded on 4-12% reducing Bis-Tris gel. Resolved proteins were transferred to 0.45 μm nitrocellulose membrane, blocked with 5% non-fat dry milk or 5% bovine serum albumin in TRIS® buffered saline (TBS)-0.1% Tween 20 for 1 hr. Membranes were incubated with primary antibody (1:1000 dilution) for 1 hr at room temperature or overnight at 4° C. Appropriate secondary antibody was applied at dilution of 1:5000 for 1 hr, membrane washed thrice in TBS-0.1% Tween-20 and membrane visualized with Clarity ECL chemiluminescence kit and ChemiDoc imager (Bio-Rad, Hercules, Calif.).
To establish a murine model of NDI, mice were administered control chow diet or 0.17% LiCl diet for 0-7 days (FIG. 1A) during which body weight, food intake (Suppl. FIG. 1) and water intake (FIG. 1B) were monitored. […]
To further test the distribution of Nrf2 and sensitivity to activation in a translational model, NQO1 expression was determined in a cell culture model systems of primary human renal cortical cells representing proximal tubule (PT) and distal tubule (DT) cell populations (Emlet et al., Am. J. Physiol. - Ren. Physiol. 312, (2017)) in the presence or absence of the Nrf2 activator CDDO-Imidazolide (CDDO-Im) (FIG. 5C-F). […]

Nrf2 [2] = test: CDDO-Me in the Li-NDI mouse model; assay type: in vivo, mice; settings: 5 mg/kg I.P., q.d.
Description: FIGS. 9A-9J. Pharmacologic activation of Nrf2 using CDDO-Me protects against polydipsia in Li-NDI via an AQP2-independent mechanism. (A) Schematic of model of Li-NDI. All mice received normal chow for 0-3d and were randomized to vehicle or CDDO-Me (5 mg/kg I.P., q.d.). At day 3, mice were randomized to either normal chow or 0.17% LiC1 diet. (B) Animal weights as a function of time, normalized to starting weight. (C) 24 hr food intake normalized to body weight. (D) Changes in water intake as a % of baseline expressed as mean±SE (n=6-8 per group). *(p<0.05) denotes statistical significance compared to LiC1-Vehicle by two-way ANOVA with Dunnet correction for multiple comparisons. (E) Immunoblotting of whole-kidney lysates for glycosylated ( ? , 45 kDa) and non-glycosylated ( ? , 29 kDa) AQP2 and NQO1; (F-H) Densitometry showing individual values, mean±SE with statistical analysis by one-way ANOVA with Tukey correction for multiple comparisons. (I) Plasma Li concentration. […]
Water and Urine: Mice and food were weighed daily. Water was supplied in 50 mL conical with sipper tube as described (bio-protocol.org/e1822), and daily water intake was determined by weight. Spot urine was collected after spontaneous voiding on plastic wrap and urine osmolality measured in technical duplicate with Wescor 5500® Vapor Pressure Osmometer using lOuL urine and the average value reported each mouse. […]

[3] = Dietary Li administration in Keap1f/f mice (constitutive Nrf2 activation); assay type: in vivo
Description: Water and Urine: Mice and food were weighed daily. Water was supplied in 50 mL conical with sipper tube as described (bio-protocol.org/e1822), and daily water intake was determined by weight. Spot urine was collected after spontaneous voiding on plastic wrap and urine osmolality measured in technical duplicate with Wescor 5500® Vapor Pressure Osmometer using lOuL urine and the average value reported each mouse.
as §1
Consequently, Li was administered to mice with constitutive pharmacomimetic Nrf2 activation (Keap1^f/f) to test whether Nrf2 and Li induced NDI via synergistic or additive mechanisms (FIG. 3A). To our surprise, instead of exacerbating the renal toxicity of Li, activation of Nrf2 signaling conferred significant protective effects.
The duration of Li therapy in humans is on the order of months to decades. An experiment was done to evaluate if Nrf2 hyperactivation conferred long-term protection from the development of Li-NDI. 6-8 week old WT and Keap1^flox/flox mice were randomized to control or 0.17% LiCl diet for 8 months.

[4] = Nrf2-/- mice

CCCCCCCC/C(=C\CCCCCCCC(=O)O)[N+](=O)[O-] [10-nitro-9(E)-octadec-9-enoic acid]
symptoms of nephrogenic diabetes insipidus (Nrf2 [1]): reduced symptoms of nephrogenic diabetes insipidus

CC1(C)CC[C@]2(C(=O)n3ccnc3)CC[C@]3(C)[C@H](C(=O)C=C4[C@@]5(C)C=C(C#N)C(=O)C(C)(C)[C@@H]5CC[C@]43C)[C@@H]2C1 [CDDO-Im, CDDO-Imidazolide]
NQO1 expression (Nrf2 gene target NQO1; CD-10/CD-13 positive HAK cells (proximal tubule), exposure to CDDO-Im): did not further increase | elevation in NQO1 (Nrf2 gene target NQO1; MUC1 positive cells (distal tubule), exposure to CDDO-Im): 3 fold

COC(=O)[C@]12CCC(C)(C)C[C@H]1[C@H]1C(=O)C=C3[C@@]4(C)C=C(C#N)C(=O)C(C)(C)[C@@H]4CC[C@@]3(C)[C@]1(C)CC2 [CDDO-Me, Bardoxolone methyl]
food consumption (Nrf2 [2]; with LiCl diet): without impacting | increase of renal NQO1 expression (Nrf2 [2]; whole-kidney lysates): 2- to 3 fold

[Cl-].[Li+] [LiCl]
water intake (polydipsia) ([3]; Keap1f/f mice receiving Li): normodipsic | body mass change vs control diet ([3]; Keap1f/f mice receiving LiCl): no change | urine osmolality ([3]; Keap1f/f-Li cohort, day 13): 758+/−703 mOsm/kg | average daily water intake compared to WT-Ctrl ([3]; Keap1flox/flox-Li mice, 0.17% LiCl diet): no significant increase | total expression of NCC (tNCC) ([3]; kidney lysates, Keap1f/f-Li cohort): significantly reduced | NQO1 expression (Nrf2 gene target NQO1; Li 10 mM and 50 mM, Mucin 1-enriched distal tubule cells and CD10/CD13 proximal tubule cells): No increase | renal protein expression of Nrf2 gene target NQO1 (0.17% LiCl diet, 7 days): without impacting | Water intake (0.17% LiCl diet, after 4 days): significantly increased | renal expression of AQP2 (0.17% LiCl diet, by 7 days): significantly downregulated | urine osmolality (hyposthenuria) (0.17% LiCl diet, day 7, spot urine): significant hyposthenuria | Expression of NQO1 in kidney (Example 4, Li treatment): not affected | glycosylated and non-glycosylated AQP2 isoforms in kidney (Example 4, both WT and Keap1f/f groups): significantly reduced | volume status when water intake clamped to baseline intake (LiCl diet, baseline-clamped water): significant volume depletion with hypernatremia and polycythemia | renal expression of CA-II (WT animals): reduced | renal COX-1 expression (WT mice): down-regulate | renal COX-2 expression (WT mice): down-regulate | spot urine osmolality (WT-Li cohort, day 13): 359+/−192 mOsm/kg | reduction in body mass (WT-Li mice, Example 4): ~5% | plasma Li+ (both WT and Keap1f/f groups on LiCl diet): equivalently elevated | total expression of NCC (tNCC) (kidney lysates, WT-Li cohort): unchanged | Activating phosphorylation of NCC at threonine 53 (pNCC, T53) (kidney lysates, both genotypes): reduced | body weight ([4]; Li diet 6 days): slightly reduced | Food intake ([4]; first 3 days of LiCl diet): modestly suppressed | urine osmolality ([4]; spot urine, day 11): 176+/−43 mOsm/kg
